{"source": "patent US20140200137A1", "about": "“TREATMENT OF STORED TUBERS WITH COMPOSITIONS OF ALKYL NAPHTHALENES AND HIGHER ALCOHOLS” (1,4 Group, Inc., priority 2013, published 2014)", "key": {"[1]": {"test_system": "existing sprouts on post-dormant potatoes with peeps and sprouts extant", "test": "Comparison of sprout suppressing chemicals applied by thermofogging (Example VII)", "format": "in vivo", "settings": "for Burn “old”: effect upon old sprouts, up to nine months old; for Burn “old” / Burn “new”: thermofogging at comparable dosages; for Burn “new”: newly emerged sprouts and peeps, generally less than a month", "text": "Various sprout suppressing chemicals were compared for their ability to suppress existing sprouts on post-dormant potatoes with peeps and sprouts extant.\nIn the above table “Burn old” refers to the effect upon old sprouts, which included sprouts up to nine months old, these being generally more difficult to desiccate, while “burn new” refers to newly emerged sprouts and peeps, generally less than a month or so in existence."}, "[2]": {"test_system": "potatoes with sprouts averaging in excess of about 2 cm, some up to 8 cm or more", "test": "Thermofogging on potatoes with very long sprouts (Examples III and IV)", "format": "in vivo", "settings": "for kill of large sprouts: full strength", "method": "In another test, the potatoes were treated with 1-nonanol at the same fogging temperature and dosage for the same period of time to achieve the same application dosage as in Example II. The potatoes in this storage had sprouts averaging in excess of about 2 cm in length. In this experiment, potatoes with very long sprouts, some up to 8 cm or more, were treated 1, 2, and 4 times sequentially with full strength nonanol. This “spray-paint” method was used to try to bring the total amount (rate) of nonanol up to a level capable of killing large sprouts as well as peeps . . . a necessity in commercial settings where sprouts of all sizes exist. […] While this was a small scale test, a whole storage full of potatoes in this condition would likely lead to secondary decays.\nThe results of Example III led to another experiment where nonanol and DMN were applied."}, "[3]": {"test_system": "peeps and sprouts of stored potatoes", "test": "General observations on treatment of stored potatoes with higher alcohols and 1,4-DMN", "format": "in vivo", "settings": "24 hours after treatment all peeps and sprouts are burned", "text": "Higher alcohols, such as 1-octanol and 1-nonanol, are miscible with 1,4-DMN.\nIt has been observed that the dormancy-like effect produced upon stored potatoes by 1,4-DMN remains, at least to some degree, even as the residue of 1,4-DMN becomes undetectable. Thus, by proper timing of the last treatment of stored potatoes with 1,4-DMN and a subsequent treatment with 1-octanol, 1-nonanol or 1-hexanol, alcohols which are on the GRAS list, both the washed potatoes and any discharged wash water will have no harmful chemicals present. The action of higher alcohols, such as 1-octanol, 1-nonanol and 1-hexanol, on peeps and sprouts is rapid, so that 24 hours after treatment all peeps and sprouts are “burned.”"}, "peeps and sprouts": {"test_system": "peeps and sprouts", "test": "Fogging of 1-nonanol compared with clove oil in burning peeps and sprouts (Example V)", "format": "in vivo, potatoes", "settings": "similar dosages"}, "[4]": {"test_system": "stored potatoes with white peeps showing from the eyes", "test": "Thermofogging of 1-nonanol on bulk stored potatoes with white peeps (Example II)", "format": "in vivo", "settings": "thermofogged at about 500° F., 8 ml for 2 kg of potatoes", "method": "Stored potatoes in bulk storage were treated with 1-nonanol (n-nonyl alcohol) via a thermofogger to determine sprout inhibition. The thermofogger was operated at an aerosol chamber temperature of about 500° F. A good stable aerosol was produced. The alcohol was applied at a dosage of 8 ml for 2 kg of potatoes. The system was open so that the actual dosage reaching the potatoes was considerably less than the fogged amount. In a first bulk storage, the potatoes had white “peeps” showing from the eyes."}, "potatoes [5]": {"test_system": "potatoes", "test": "Thermofogging of 1-octanol on cold and warmer potatoes, damage to skin and flesh (Example IX)", "format": "in vivo", "method": "The 1-octanol was applied via an electrically […] thermofogger at a fog temperature within the fogger of about 500° F. to obtain a stable aerosol. The potatoes were examined about 24 hours after treatment. […] The potatoes were cut open at the dark spots. Damage to the flesh of the potatoes existed to a depth of about 5 mm to 25 mm. Potato flesh was otherwise undamaged except under the dark spots."}, "sprouts on potatoes": {"test_system": "sprouts on potatoes", "test": "Mixtures of 1,4-DMN with octanol at various volumetric ratios, burn of sprouts (Example VIII)", "format": "in vivo", "set-up": "key: +++: Excellent effect; ++: Very good effect; +: Good effect; —: Negligible effect", "settings": "total dosage of each mixture constant", "text": "All mixtures provided a more rapid burn of sprouts compared with an equal dosage of octanol or 1,4-DMN alone. The 7:1 ratio of octanol to DMN gave the best results in terms of length of non-sprouting condition before nascent sprouts again appeared."}, "potatoes [6]": {"test_system": "potatoes", "settings": "in vivo; cited from earlier work"}}, "data": [{"smiles": "Cc1ccc(C)c2ccccc12", "note": "[1,4-DMN, 1,4 dimethyl naphthalene]", "values": [{"measurement": "Burn “old”", "setting": "[1]", "value": "+"}, {"measurement": "Burn “new”", "setting": "[1]", "value": "+"}]}, {"smiles": "CCCCCCCCCCO", "note": "[1-Decanol]", "values": [{"measurement": "Burn “old”", "setting": "[1]", "value": "++"}, {"measurement": "Burn “new”", "setting": "[1]", "value": "++"}]}, {"smiles": "CCCCCCCCCO", "note": "[1-Nonanol, 1-nonanol]", "values": [{"measurement": "negative side effect observed", "setting": "[2]; four sequential applications", "value": "wet, slimy, sprout rot"}, {"measurement": "kill of large sprouts", "setting": "[2]; four sequential applications", "value": "completely killed"}, {"measurement": "kill of large sprouts", "setting": "[2]; single or double applications", "value": "didn't reach a level of nonanol high enough to completely kill these sized sprouts"}, {"measurement": "action on peeps and sprouts", "setting": "[3]", "value": "rapid"}, {"measurement": "effectiveness in burning peeps and sprouts relative to clove oil", "setting": "peeps and sprouts", "value": "about four times as effective as clove oil"}, {"measurement": "damage to potato flesh adjacent the eyes", "setting": "[4]", "value": "without any damage to potato flesh"}, {"measurement": "effect on white peeps", "setting": "[4]; open system", "value": "burned to a dark color and were inactivated"}, {"measurement": "Burn “old”", "setting": "[1]", "value": "+++"}, {"measurement": "desiccation of existing peeps and sprouts, ranking in the test", "setting": "[1]; in vivo", "value": "most effectively desiccated existing peeps and sprouts"}, {"measurement": "Burn “new”", "setting": "[1]", "value": "+++"}]}, {"smiles": "CCCCCCCCO", "note": "[1-Octanol, 1-octanol]", "values": [{"measurement": "action on peeps and sprouts", "setting": "[3]", "value": "rapid"}, {"measurement": "Burn “old”", "setting": "[1]", "value": "++"}, {"measurement": "Burn “new”", "setting": "[1]", "value": "+++"}, {"measurement": "depth of damage to the flesh under the dark spots", "setting": "potatoes [5]; potato, in vivo, 24 h", "value": "5-25 mm"}, {"measurement": "damage to potato skin", "setting": "potatoes [5]; potatoes at about 36° F., fog about 500° F., examined about 24 hours after treatment", "value": "large dark damaged spots"}, {"measurement": "injury to potato skin or flesh", "setting": "potatoes [5]; potatoes held at 53° F., similar dosage, fogging temperature and rate", "value": "did not show injury to the potato skin or to its flesh"}]}, {"smiles": "CCCCCCCCO", "note": "[1:0, octanol]", "values": [{"measurement": "Length of Burn", "setting": "sprouts on potatoes", "value": "+++"}, {"measurement": "Rapid Burn", "setting": "sprouts on potatoes", "value": "++"}]}, {"smiles": "CCCCC(CC)CO", "note": "(centres unmarked) [2-ethyl-hexan-1-01]", "values": [{"measurement": "results among alcohols tested by Burton", "setting": "potatoes [6]", "value": "Worst results"}]}, {"smiles": "CCCCCOC(C)=O", "note": "[AmylAcetate, amyl acetate]", "values": [{"measurement": "Burn “new”", "setting": "[1]", "value": "++"}]}, {"smiles": "CCCCCCCCCCCCO", "note": "[Dodecanol]", "values": [{"measurement": "Burn “old”", "setting": "[1]", "value": "−\\+"}, {"measurement": "Burn “new”", "setting": "[1]", "value": "−"}]}, {"smiles": "CCCCCCO", "note": "[Hexanol, 1-hexanol]", "values": [{"measurement": "action on peeps and sprouts", "setting": "[3]", "value": "rapid"}, {"measurement": "Burn “old”", "setting": "[1]", "value": "+"}, {"measurement": "Burn “new”", "setting": "[1]", "value": "++"}]}, {"smiles": "CCCCCO", "note": "[amyl, amyl alcohol]", "values": [{"measurement": "results among alcohols tested by Burton", "setting": "potatoes [6]", "value": "Best results"}]}, {"smiles": "CCCCCCO", "note": "[n-hexyl, n-hexyl alcohol]", "values": [{"measurement": "results among alcohols tested by Burton", "setting": "potatoes [6]", "value": "Worst results"}]}, {"smiles": "CCCCCCCCCO", "note": "[nonyl, nonyl alcohol]", "values": [{"measurement": "results among alcohols tested by Burton", "setting": "potatoes [6]", "value": "Best results"}]}]}
